{"source": "patent EP2787003A1", "about": "“Antimicrobial peptide produced by marine sponge-derived Bacillus subtilis” (priority 2013, dated 2014)", "key": {"[1]": {"system": "MRSA", "experiment": "Spot on lawn assay", "assay_type": "cell-based, MRSA ST 530", "set-up": "key: +, clear halo of growth inhibition; ++: multiple +, increased activity as assessed visually by the increased diameter of the inhibition zone; +++: multiple +, increased activity as assessed visually by the increased diameter of the inhibition zone; ++++: multiple +, increased activity as assessed visually by the increased diameter of the inhibition zone; +++++: multiple +, increased activity as assessed visually by the increased diameter of the inhibition zone; -, no inhibition", "settings": "indicator MRSA"}, "[2]": {"system": "protease mixture from Streptomyces griseus", "experiment": "Susceptibility to proteolytic enzymes, bioactivity by spot on lawn assay", "settings": "Streptomyces griseus protease 1 mg ml^-1, 37 °C, 1 h; indicator L. monocytogenes"}, "[3]": {"system": "C. parapsilosis", "experiment": "Spot on lawn assay", "assay_type": "cell-based, Candida parapsilosis", "set-up": "key: +, clear halo of growth inhibition; ++: multiple +, increased activity as assessed visually by the increased diameter of the inhibition zone; +++: multiple +, increased activity as assessed visually by the increased diameter of the inhibition zone; ++++: multiple +, increased activity as assessed visually by the increased diameter of the inhibition zone; +++++: multiple +, increased activity as assessed visually by the increased diameter of the inhibition zone; -, no inhibition", "settings": "indicator C. parapsilosis", "protocol": "(§1) Antimicrobial activity of isolate MMA7 against the indicator strains was initially assessed with a deferred antagonism assay as described by Phelan et al. (2012). Subsequent testing of supernatants, crude extracts and purified compounds was carried out with a well and/or a spot on lawn assays. Essentially, 5 µl of samples were spotted onto 20 ml agar plates seeded with the indicator strain to a final OD600 of 0.015, or 30 µl aliquots were applied to a 5 mm well made on identical plates."}, "[4]": {"system": "C. lusitaniae", "experiment": "Spot on lawn assay", "assay_type": "cell-based, Candida lusitaniae", "set-up": "key: +, clear halo of growth inhibition; ++: multiple +, increased activity as assessed visually by the increased diameter of the inhibition zone; +++: multiple +, increased activity as assessed visually by the increased diameter of the inhibition zone; ++++: multiple +, increased activity as assessed visually by the increased diameter of the inhibition zone; +++++: multiple +, increased activity as assessed visually by the increased diameter of the inhibition zone; -, no inhibition", "settings": "indicator C. lusitaniae", "protocol": "as §1"}, "[5]": {"system": "C. dubliniensis", "experiment": "Spot on lawn assay", "assay_type": "cell-based, Candida dubliniensis", "set-up": "key: +, clear halo of growth inhibition; ++: multiple +, increased activity as assessed visually by the increased diameter of the inhibition zone; +++: multiple +, increased activity as assessed visually by the increased diameter of the inhibition zone; ++++: multiple +, increased activity as assessed visually by the increased diameter of the inhibition zone; +++++: multiple +, increased activity as assessed visually by the increased diameter of the inhibition zone; -, no inhibition", "settings": "indicator C. dubliniensis", "protocol": "as §1"}, "[6]": {"system": "C. sporogenes", "experiment": "Spot on lawn assay", "assay_type": "cell-based, Clostridium sporogenes NCDO 1791", "set-up": "key: +, clear halo of growth inhibition; ++: multiple +, increased activity as assessed visually by the increased diameter of the inhibition zone; +++: multiple +, increased activity as assessed visually by the increased diameter of the inhibition zone; ++++: multiple +, increased activity as assessed visually by the increased diameter of the inhibition zone; +++++: multiple +, increased activity as assessed visually by the increased diameter of the inhibition zone; -, no inhibition", "settings": "indicator C. sporogenes", "protocol": "as §1"}}}
{"smiles": "C=C1NC(=O)[C@@H]2CSC[C@@H](NC(=O)[C@@H]3CS[C@@H](C)[C@H]4NC(=O)[C@H](Cc5ccccc5)NC(=O)[C@H](NC(=O)[C@H](CCCNC(=N)N)NC(=O)[C@@H]5CSC[C@@H](NC(=O)[C@H](CCC(N)=O)NC(=O)[C@@H](NC(=O)[C@@H](NC(=O)/C(=C/C)NC(=O)[C@H](CCCCN)NC(=O)CNC(=O)[C@@H](NC(=O)/C(=C/C)NC(=O)[C@H](C)NC(=O)[C@H](Cc6c[nH]c7ccccc67)NC(=O)C(=O)CC)[C@@H](C)CC)[C@@H](C)CC)C(C)C)C(=O)N[C@@H](C(C)C)C(=O)N[C@@H](CCCCN)C(=O)N[C@@H](CCCCN)C(=O)N5)[C@H](C)SC[C@H](NC4=O)C(=O)NCC(=O)N3)C(=O)N[C@@H](CC(C)C)C(=O)NCC(=O)N[C@H](CSC[C@@H](C(=O)N[C@@H](CC(N)=O)C(=O)O)NC(=O)[C@H](CC(N)=O)NC1=O)C(=O)N2", "note": "[Subtilomycin]", "values": [{"measurement": "Antimicrobial activity, spot on lawn assay", "setting": "[1]", "result": "+"}, {"measurement": "Antimicrobial activity after proteolytic treatment", "setting": "[2]", "result": "complete loss of activity"}, {"measurement": "Antimicrobial activity, spot on lawn assay", "setting": "[3]", "result": "-"}, {"measurement": "Antimicrobial activity, spot on lawn assay", "setting": "[4]", "result": "-"}, {"measurement": "Antimicrobial activity, spot on lawn assay", "setting": "[5]", "result": "-"}, {"measurement": "Antimicrobial activity, spot on lawn assay", "setting": "[6]", "result": "+++"}]}
